From ChEMBL document CHEMBL1201862, “PubChem BioAssay data set” (2004)
Values belong to the compound of their own block, whether it stands above or below them. The source made the active and inactive calls.

How the values were obtained:
[1] = target: T1, Tyrosine-protein phosphatase non-receptor type 22 (Homo sapiens, UniProt Q9Y2R2); test: SAR LYP1 Fluorescent Assay using OMFP substrate for In Vitro dose response studies - Set 2. [Related pubchem assays (depositor defined):AID1779, AID1784, AID2140, AID449726, AID488869]; assay type: functional
T1 sequence (Q9Y2R2 whole entry): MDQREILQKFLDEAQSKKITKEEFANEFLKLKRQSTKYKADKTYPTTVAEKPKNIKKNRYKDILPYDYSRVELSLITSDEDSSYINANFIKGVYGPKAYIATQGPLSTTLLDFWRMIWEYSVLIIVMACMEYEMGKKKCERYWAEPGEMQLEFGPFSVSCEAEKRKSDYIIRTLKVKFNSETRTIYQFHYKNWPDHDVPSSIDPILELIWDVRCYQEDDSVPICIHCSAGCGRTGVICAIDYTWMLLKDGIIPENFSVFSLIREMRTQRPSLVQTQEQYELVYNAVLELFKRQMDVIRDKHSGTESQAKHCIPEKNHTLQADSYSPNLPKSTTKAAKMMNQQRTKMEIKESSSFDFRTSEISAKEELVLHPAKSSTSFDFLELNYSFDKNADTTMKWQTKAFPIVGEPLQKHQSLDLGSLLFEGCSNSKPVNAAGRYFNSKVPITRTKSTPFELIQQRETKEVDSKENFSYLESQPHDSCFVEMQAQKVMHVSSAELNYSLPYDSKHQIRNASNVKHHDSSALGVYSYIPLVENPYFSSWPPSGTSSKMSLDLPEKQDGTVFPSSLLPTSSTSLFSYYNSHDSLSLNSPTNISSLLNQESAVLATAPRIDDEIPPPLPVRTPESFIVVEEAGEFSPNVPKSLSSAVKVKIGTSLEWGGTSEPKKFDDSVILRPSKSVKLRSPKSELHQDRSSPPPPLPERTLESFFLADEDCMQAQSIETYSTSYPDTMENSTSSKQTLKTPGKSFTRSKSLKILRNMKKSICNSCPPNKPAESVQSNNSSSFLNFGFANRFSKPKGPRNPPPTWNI

[2] = target: T1, Tyrosine-protein phosphatase non-receptor type 22; test: inhibition of lymphoid tyrosine phosphatase LYP – biochemical, pCAP fluorogenic substrate, fluorescence, set 3, SAR follow-up (AID 449727); assay type: functional
[3] = target: Tyrosine-protein phosphatase non-receptor type 12 (Homo sapiens, UniProt Q05209); test: SAR Selectivity Analysis of small molecule inhibitors of PEST using pCAP in a fluorescence assay. [Related pubchem assays (depositor defined):AID1779, AID1784, AID2135]; assay type: functional
Sequence of Tyrosine-protein phosphatase non-receptor type 12 (Q05209 whole entry): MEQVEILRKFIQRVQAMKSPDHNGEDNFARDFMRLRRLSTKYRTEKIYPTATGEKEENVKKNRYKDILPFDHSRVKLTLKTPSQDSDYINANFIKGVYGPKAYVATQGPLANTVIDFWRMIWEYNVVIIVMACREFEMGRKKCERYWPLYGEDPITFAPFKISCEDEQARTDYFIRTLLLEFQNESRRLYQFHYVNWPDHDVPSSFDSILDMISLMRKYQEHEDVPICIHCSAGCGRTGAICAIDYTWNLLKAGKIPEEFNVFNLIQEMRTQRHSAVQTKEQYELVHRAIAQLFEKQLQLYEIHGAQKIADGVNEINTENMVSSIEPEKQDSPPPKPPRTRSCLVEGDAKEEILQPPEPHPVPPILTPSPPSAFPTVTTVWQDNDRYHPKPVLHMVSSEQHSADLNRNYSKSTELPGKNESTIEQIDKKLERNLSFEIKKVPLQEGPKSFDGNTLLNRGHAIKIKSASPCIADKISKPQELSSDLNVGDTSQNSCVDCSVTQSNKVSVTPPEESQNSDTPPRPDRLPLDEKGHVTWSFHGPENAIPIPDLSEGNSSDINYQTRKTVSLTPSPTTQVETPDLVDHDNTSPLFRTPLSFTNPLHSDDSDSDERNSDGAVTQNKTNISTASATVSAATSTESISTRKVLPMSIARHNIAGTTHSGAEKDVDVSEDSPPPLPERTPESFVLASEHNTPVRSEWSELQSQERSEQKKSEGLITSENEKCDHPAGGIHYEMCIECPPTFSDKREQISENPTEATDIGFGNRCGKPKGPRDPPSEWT

[4] = target: T2, Tyrosine-protein phosphatase non-receptor type 7 (Homo sapiens, UniProt P35236); test: inhibition of hematopoietic tyrosine phosphatase HePTP – biochemical, set 2, SAR follow-up (AID 449736); assay type: functional
T2 sequence (P35236 whole entry): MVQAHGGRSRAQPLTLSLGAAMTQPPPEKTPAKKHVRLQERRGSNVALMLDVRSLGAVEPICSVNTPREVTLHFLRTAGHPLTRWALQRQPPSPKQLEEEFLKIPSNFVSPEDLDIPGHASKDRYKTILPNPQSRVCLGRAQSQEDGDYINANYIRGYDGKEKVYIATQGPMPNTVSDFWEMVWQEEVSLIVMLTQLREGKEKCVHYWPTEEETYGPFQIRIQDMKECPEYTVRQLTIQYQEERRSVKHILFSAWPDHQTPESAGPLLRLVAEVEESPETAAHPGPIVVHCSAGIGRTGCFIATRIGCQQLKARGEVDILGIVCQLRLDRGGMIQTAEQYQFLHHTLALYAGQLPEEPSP

[5] = target: T1, Tyrosine-protein phosphatase non-receptor type 22; test: SAR LYP1 Fluorescent Assay using OMFP substrate for In Vitro dose response studies - Set 3. [Related pubchem assays (depositor defined):AID1779, AID1784, AID2140, AID2686]; assay type: functional
[6] = target: T1, Tyrosine-protein phosphatase non-receptor type 22; test: SAR LYP1 Fluorescent Assay using pCAP substrate for In Vitro dose response studies - Set 2. [Related pubchem assays (depositor defined):AID1779, AID1784, AID2135, AID449727]; assay type: functional
[7] = NIH-3T3 fibroblast cytotoxicity, dose response, cytotoxicity control, cell-based, fluorescence, Alamar Blue, secondary assay (AID 2327); assay type: functional;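 note: NIH-3T3 mouse fibroblasts cultured with fluconazole at 8 µg/mL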
[8] = target: T3, Runt-related transcription factor 1/Core-binding factor subunit beta (Homo sapiens, UniProt Q01196+Q13951); test: Runt domain/CBFb-SMMHC interaction disruptors – biochemical, TR-FRET (AID 1438); assay type: protein assay
T3 sequence (Q01196 whole entry, the tested form may be a part): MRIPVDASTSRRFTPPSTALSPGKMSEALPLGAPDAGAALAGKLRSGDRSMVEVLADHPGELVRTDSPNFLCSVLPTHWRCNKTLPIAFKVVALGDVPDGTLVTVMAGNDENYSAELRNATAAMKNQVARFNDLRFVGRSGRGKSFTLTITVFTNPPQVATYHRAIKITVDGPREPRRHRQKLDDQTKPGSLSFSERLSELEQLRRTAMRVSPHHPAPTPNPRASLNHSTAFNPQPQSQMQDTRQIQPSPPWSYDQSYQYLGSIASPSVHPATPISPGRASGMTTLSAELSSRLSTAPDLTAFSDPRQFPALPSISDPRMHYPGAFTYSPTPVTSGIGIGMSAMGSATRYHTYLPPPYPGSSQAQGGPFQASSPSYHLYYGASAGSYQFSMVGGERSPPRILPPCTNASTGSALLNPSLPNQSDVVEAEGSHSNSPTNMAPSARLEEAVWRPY
T3 sequence (Q13951 whole entry, the tested form may be a part): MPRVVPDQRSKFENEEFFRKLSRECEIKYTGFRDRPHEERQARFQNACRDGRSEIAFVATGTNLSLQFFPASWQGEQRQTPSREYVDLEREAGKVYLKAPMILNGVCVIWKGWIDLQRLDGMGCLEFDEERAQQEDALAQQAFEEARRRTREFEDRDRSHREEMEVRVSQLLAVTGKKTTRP

[9] = target: T3, Runt-related transcription factor 1/Core-binding factor subunit beta; test: disruptors of Runt domain/CBFb-SMMHC interaction – biochemical, FRET, Cerulean-Runt, Venus-CBFb-SMMHC, uHTS, […] (AID 1434); assay type: protein assay
[10] = target: Kappa-type opioid receptor (Homo sapiens, UniProt P41145); test: SAR analysis of small molecule agonists of the kappa opioid receptor via a luminescent beta-arrestin assay - Set 3. [Related pubchem assays (depositor defined):AID1777, AID1785, AID1786, AID1966, AID2133, AID2136, AID2284, AID2500]; assay type: functional
Sequence of Kappa-type opioid receptor (P41145 whole entry): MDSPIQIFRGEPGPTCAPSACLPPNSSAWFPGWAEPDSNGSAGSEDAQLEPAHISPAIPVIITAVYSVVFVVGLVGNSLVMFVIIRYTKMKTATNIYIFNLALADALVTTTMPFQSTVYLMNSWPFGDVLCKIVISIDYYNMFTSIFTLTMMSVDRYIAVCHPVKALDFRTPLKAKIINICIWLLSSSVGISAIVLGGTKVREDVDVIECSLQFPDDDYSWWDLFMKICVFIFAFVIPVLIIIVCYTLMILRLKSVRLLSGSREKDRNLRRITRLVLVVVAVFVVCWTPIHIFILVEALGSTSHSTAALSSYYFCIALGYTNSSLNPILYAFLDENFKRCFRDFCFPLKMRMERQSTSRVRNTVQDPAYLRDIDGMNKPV

[11] = target: Peroxisome proliferator-activated receptor gamma (Homo sapiens, UniProt P37231); test: PPARg transcriptional activation, reporter cells – cell-based, luminescence, assay provider, dose response (AID 504447); assay type: functional
Sequence of Peroxisome proliferator-activated receptor gamma (P37231 whole entry): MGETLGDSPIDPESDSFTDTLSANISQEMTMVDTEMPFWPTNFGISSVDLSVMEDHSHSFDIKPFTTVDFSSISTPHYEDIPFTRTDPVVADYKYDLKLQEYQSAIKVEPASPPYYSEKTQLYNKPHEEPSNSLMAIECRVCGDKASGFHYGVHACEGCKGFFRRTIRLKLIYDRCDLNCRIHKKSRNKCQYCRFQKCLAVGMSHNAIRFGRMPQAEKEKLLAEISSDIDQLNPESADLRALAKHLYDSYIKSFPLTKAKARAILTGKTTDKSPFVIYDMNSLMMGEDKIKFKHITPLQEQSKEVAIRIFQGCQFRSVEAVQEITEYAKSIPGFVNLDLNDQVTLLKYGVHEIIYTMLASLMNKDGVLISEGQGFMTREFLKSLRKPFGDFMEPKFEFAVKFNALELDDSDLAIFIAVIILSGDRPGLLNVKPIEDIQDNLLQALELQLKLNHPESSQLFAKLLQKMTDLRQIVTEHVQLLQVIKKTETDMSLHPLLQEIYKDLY

[12] = viability of uninfected HEp-2 cells – cell-based, HTS, cytotoxicity control for RSV inhibitor project, dose response (AID 2410); assay type: functional; details: human respiratory syncytial virus
[13] = target: T4, E3 ubiquitin-protein ligase XIAP (Homo sapiens, UniProt P98170); test: Counter Screen using XIAP-Bir3 for Chemical Antagonists of Bir1/2 domains of IAP-family anti-apoptotic proteins. [Related pubchem assays (depositor defined):AID1018, AID1449, AID1514, AID1638, AID1749, AID1750, AID488957, AID488963]
T4 sequence (P98170 whole entry): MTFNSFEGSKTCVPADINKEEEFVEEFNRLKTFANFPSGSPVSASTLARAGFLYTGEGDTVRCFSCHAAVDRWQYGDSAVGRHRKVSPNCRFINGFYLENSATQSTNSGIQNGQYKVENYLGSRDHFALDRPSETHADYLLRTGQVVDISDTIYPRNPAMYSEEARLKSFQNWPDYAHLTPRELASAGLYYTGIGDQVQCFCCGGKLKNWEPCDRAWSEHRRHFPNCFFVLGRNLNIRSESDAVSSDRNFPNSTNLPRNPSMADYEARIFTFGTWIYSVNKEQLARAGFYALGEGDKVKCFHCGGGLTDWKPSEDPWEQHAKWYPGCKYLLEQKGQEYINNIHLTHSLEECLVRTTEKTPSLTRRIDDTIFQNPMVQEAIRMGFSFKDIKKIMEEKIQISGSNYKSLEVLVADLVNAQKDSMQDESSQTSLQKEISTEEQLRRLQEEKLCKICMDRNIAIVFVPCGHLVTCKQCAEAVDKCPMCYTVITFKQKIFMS

[14] = target: T4, E3 ubiquitin-protein ligase XIAP; test: small molecules displacing peptide from XIAP – biochemical, IAP family, fluorescence polarization (AID 1018); assay type: functional

Compound: O=C(CN1CCN(c2ccc(O)cc2)CC1)NC(c1ccccc1)c1ccccc1
EC50 [7]: 28.5 µM (active)
IC50 [8]: > 100 µM (inactive)
IC50 [9]: > 100 µM (inactive)

Compound: c1ccc(CSc2nnc(-c3ccccn3)n2Cc2cccnc2)cc1
EC50 [10]: > 20 µM (inactive)

Compound: CCOc1ccc(C2c3[nH]c4ccccc4c3CCN2Cc2cccn2-c2ncccn2)cc1 (centres undefined)
EC50 [11]: 1.6 µM (active)
CC50 [12]: 16 µM (active)

The next lines start with the values.

IC50 [1]: > 100 µM (inactive)
IC50 [2]: > 100 µM (inactive)
IC50 [3]: 45.1 µM (active)
IC50 [4]: 0.465 µM (active)
IC50 [5]: > 100 µM (inactive)
IC50 [6]: > 100 µM (inactive)
Compound: O=C(O)COc1ccc(Nc2ccccc2)cc1

IC50 [13]: > 100 µM (inactive)
IC50 [14]: > 100 µM (not active)
Compound: CC(=O)NCCc1csc(-c2ccccc2)n1
